Series [1] is described as follows: Pharmacokinetic profile in fasted beagle dogs. The class given is in vivo. As to conditions: dog, blood, po, 1 mg/kg; for Cmax / AUC(0-t): 3 fasted beagle dogs; for AUC(0-t): read-out: AUC0-24. The method, then: The API is Compound A, or a pharmaceutically acceptable salt thereof. Bioavailability is determined in vivo by dosing trial formulations and/or other formulations of the active pharmaceutical ingredient (API) to Beagle dogs at a dose of 1 mg/kg of the API and then measuring the amount of API in the serum or blood as a function of time. The spray dried particles from Spray Dry Process I were made into granules as follows. The particles were blended in a suitable blender (V or Bohle) with microcrystalline cellulose (diluent/compression aid), lactose (diluent/compression aid), croscarmellose sodium (a disintegrant), colloidal silicon dioxide (a glidant), and magnesium stearate (a lubricant). The blended powders were then roller compacted into granules, subjected to extragranular lubrication, and filled into capsules.

Series [2] can be described thus: Storage of neat amorphous spray dried drug in open container, crystallization. It counts as physicochemical. The settings on record: neat amorphous drug generated by spray drying. The source says: It is well understood that crystallization tendency varies dramatically across active pharmaceutical ingredients (Journal of Pharmaceutical Sciences, Vol. 99, No. 9, September 2010) and the rate of crystallization is a function of the thermodynamic driving force and the mobility of the system (Angell, C. A., Formation of Glasses from Liquids and Biopolymers. Science, 1995. 267(5206): p. 1924-1935. Mullin, J. W., Crystallization. 4th ed. 2001, Oxford: Reed Educational and Professional Publishing Ltd. Hoffman, J. D., Thermodynamic Driving Force in Nucleation and Growth Processes. Journal of Chemical Physics, 1958. 29(5): p. 1192-1193. Adam, G. and Gibbs, J. H., On Temperature Dependence of Cooperative Relaxation Properties in Glass-Forming Liquids. Journal of Chemical Physics, 1965. 43(1): p. 139-146. Ediger, M. D., Supercooled liquids and glasses. Journal of Physical Chemistry, 1996. 100(31): p. 13200-13212.). […] Neat amorphous drug generated by spray drying crystallizes within 2 weeks when stored in an open container at 5° C./ambient relative humidity (RH), 30° C./65% RH, 40° C./75% RH, and 60° C./ambient RH.

Setting [3] is: capsule of spray dried dispersion: 10% Compound A, 40% HPMCAS-LG.
The mark [4] stands for this setting: comparison capsule: 30% crystalline Compound A without polymer, 5% sodium lauryl sulfate.

Read-outs that look alike come from different tables or passages of the source. Some results are limits rather than exact numbers.

Consider `Cn1c(Cn2ccc(C(F)(F)F)c(Oc3cc(Cl)cc(C#N)c3)c2=O)n[nH]c1=O` [Compound A, 3-chloro-5-({1-[(4-methyl-5-oxo-4,5-dihydro-1H-1,2,4-triazol-3-yl)methyl]-2-oxo-4-(trifluoromethyl)-1,2-dihydropyridin-3-yl}oxy)benzonitrile], for which the Tmax in series [1] was found to be 4 h. The Cmax in series [1] (setting [3]) came out at 7.23 ± 0.99 µM; in series [1] (setting [4]), 3.46 ± 1.59 µM. Further, the AUC(0-t) was 137 ± 25.3 µM·h in series [1] (setting [3]) and 52.4 ± 15.9 µM·h in series [1] (setting [4]). For the same compound, the time to crystallization in series [2] (5° C./ambient RH), in series [2] (30° C./65% RH), in series [2] (40° C./75% RH) and in series [2] (60° C./ambient RH) was at most 2 weeks throughout.

Source of the values: patent US20160287568A1, “COMPOSITION OF A NON-NUCLEOSIDE REVERSE TRANSCRIPTASE INHIBITOR” (MERCK SHARP & DOHME CORP., priority 2013, published 2016).
